From patent US20070099856A1, “Combined treatment with docetaxel and an epidermal growth factor receptor kinase inhibitor using an intermittent dosing regimen” (priority 2005, published 2007)

Legend:
[1] = test system: patients with advanced solid tumors; test: Phase I dose escalation Arm A: DOC every 21 days plus weekly erlotinib days 2, 9, 16; type: in vivo, human
Description: (§1) One explanation is antagonism due to TKI-induced G1 arrest, reducing cell cycle phase-dependent activity of chemotherapy (see FIG. 1). We hypothesized that pharmacodynamic separation by intermittent delivery of HER1/EGFR TKI with chemotherapy might increase efficacy.
(§2) Erlotinib (TARCEVA™) was obtained from OSI Pharmaceuticals, Inc. Melville, N.Y.). Docetaxel (TAXOTERE®) is manufactured and sold by Aventis Pharmaceuticals Inc.

[2] = test system: patients with advanced solid tumors; test: Phase I dose escalation Arm B: DOC every 21 days plus erlotinib days 2-16; type: in vivo, human
Description: as §1, §2

NSCLC = conditions: first-line, in combination with standard chemotherapy, NSCLC phase III; cited from earlier work
[3] = test system: advanced, treatment-refractory NSCLC; conditions: monotherapy, phase III; cited from earlier work

Row | Structure (SMILES) | Arm A MTD, DOC ([1]; IV every 21 days, combined with weekly erlotinib 600 mg) [mg/m^2] | Arm B MTD, DOC ([2]; IV every 21 days, combined with erlotinib 200 mg day 2-16) [mg/m^2] | Survival (NSCLC) | Arm A MTD, erlotinib ([1]; weekly (days 2, 9, 16), combined with DOC 70 mg/m^2) [mg] | Arm B MTD, erlotinib ([2]; day 2-16, combined with DOC 70 mg/m^2) [mg] | Survival [3]
1 | CC(=O)O[C@@]12CO[C@@H]1C[C@H](O)[C@@]1(C)C(=O)[C@H](O)C3=C(C)[C@@H](OC(=O)[C@H](O)[C@@H](NC(=O)OC(C)(C)C)c4ccccc4)C[C@@](O)([C@@H](OC(=O)c4ccccc4)[C@H]21)C3(C)C [DOC, docetaxel] | 70 | 70 |  |  |  | 
2 | C#Cc1cccc(Nc2ncnc3cc(OCCOC)c(OCCOC)cc23)c1 [erlotinib, [6,7-bis(2-methoxyethoxy)-4-quinazolin-4-yl]-(3-ethynylphenyl)amine] |  |  | did not improve survival | 600 | 200 | significantly prolonged survival
3 | COc1cc2ncnc(Nc3ccc(F)c(Cl)c3)c2cc1OCCCN1CCOCC1 [gefitinib] |  |  | did not improve survival |  |  | 
